Test results as given in US10111432B2, “Picolinamide N-oxide compounds with fungicidal activity” (Dow AgroSciences LLC, priority 2016, dated 2018).
Read-outs that look alike come from different tables or passages of the source.

What was measured:
[1] = tested on: Zymoseptoria tritici; experiment: Fungicidal activity: leaf blotch of wheat (SEPTTR), disease control on wheat seedlings; assay type: in vivo; settings: for pest or weed control at 121.5 g/ha: low volume application, 121.5 g/H; for pest or weed control at 100 ppm: high volume application
Experimental: Technical grades of materials were dissolved in acetone, which were then mixed with nine volumes of water (H2O) containing 110 ppm Triton X-100. The fungicide solutions were applied onto wheat seedlings using an automated booth sprayer to run-off. All sprayed plants were allowed to air dry prior to further handling. All fungicides were evaluated using the aforementioned method for their activity vs. all target diseases, unless stated otherwise. Wheat leaf blotch and brown rust activity were also evaluated using track spray applications, in which case the fungicides were formulated as EC formulations, containing 0.1% Trycol 5941 in the spray solutions. Wheat plants (variety Yuma) were grown from seed in a greenhouse in 50% mineral soil/50% soil-less Metro mix until the first leaf was fully emerged, with 7-10 seedlings per pot. These plants were inoculated with an aqueous spore suspension of Zymoseptoria tritici either prior to or after fungicide treatments. After inoculation the plants were kept in 100% relative humidity (one day in a dark dew chamber followed by two to three days in a lighted dew chamber at 20° C.) to permit spores to germinate and infect the leaf. The plants were then transferred to a greenhouse set at 20° C. for disease to develop. When disease symptoms were fully expressed on the 1st leaves of untreated plants, infection levels were assessed on a scale of 0 to 100 percent disease severity. Percent disease control was calculated using the ratio of disease severity on treated plants relative to untreated plants.

[2] = tested on: Puccinia triticina; experiment: Fungicidal activity: wheat brown rust (PUCCRT), disease control on wheat seedlings; assay type: in vivo; settings: for pest or weed control at 121.5 g/ha: low volume application, 121.5 g/H; for pest or weed control at 100 ppm: high volume application
Experimental: Technical grades of materials were dissolved in acetone, which were then mixed with nine volumes of water (H2O) containing 110 ppm Triton X-100. The fungicide solutions were applied onto wheat seedlings using an automated booth sprayer to run-off. All sprayed plants were allowed to air dry prior to further handling. All fungicides were evaluated using the aforementioned method for their activity vs. all target diseases, unless stated otherwise. Wheat leaf blotch and brown rust activity were also evaluated using track spray applications, in which case the fungicides were formulated as EC formulations, containing 0.1% Trycol 5941 in the spray solutions. Wheat plants (variety Yuma) were grown from seed in a greenhouse in 50% mineral soil/50% soil-less Metro mix until the first leaf was fully emerged, with 7-10 seedlings per pot. These plants were inoculated with an aqueous spore suspension of Puccinia triticina either prior to or after fungicide treatments. After inoculation the plants were kept in a dark dew room at 22° C. with 100% relative humidity overnight to permit spores to germinate and infect the leaf. The plants were then transferred to a greenhouse set at 24° C. for disease to develop. Fungicide formulation, application and disease assessment followed the procedures as described in the Example A. Results of the evaluations are shown below in Table 4.

[3] = 72 h, 3 day curative, read-out: SEPTTR disease control, 3DC, LV activity at 121.5 g/H
[4] = 24 h, 1 day protectant, read-out: PUCCRT disease control, 1DP, LV activity at 121.5 g/H
[5] = 72 h, 3 day curative, read-out: PUCCRT disease control, 3DC, LV activity at 121.5 g/H
[6] = 24 h, 1 day protectant, read-out: SEPTTR disease control, 1DP, HV activity at 100 ppm
[7] = 24 h, 1 day protectant, read-out: SEPTTR disease control, 1DP, LV activity at 121.5 g/H
[8] = 24 h, 1 day protectant, read-out: PUCCRT disease control, 1DP, HV activity at 100 ppm
[9] = 72 h, 3 day curative, read-out: PUCCRT disease control, 3DC, HV activity at 100 ppm
[10] = 72 h, 3 day curative, read-out: SEPTTR disease control, 3DC, HV activity at 100 ppm

## CC[C@H](OC(=O)[C@H](C)NC(=O)c1c(O)c(OC)cc[n+]1[O-])[C@H](Oc1ccccc1)C(C)C [Compound 8]
[1]; [3]
  pest or weed control at 121.5 g/ha: ≤ 80%
[2]; [4]
  pest or weed control at 121.5 g/ha: ≤ 80%
[2]; [5]
  pest or weed control at 121.5 g/ha: > 80%

## COc1cc[n+]([O-])c(C(=O)N[C@@H](C)C(=O)O[C@H](C(C)C)[C@H](C)Oc2ccccc2)c1O [Compound 10]
[1]; [6]
  pest or weed control at 100 ppm: ≤ 80%
[1]; [7]
  pest or weed control at 121.5 g/ha: > 80%
[2]; [8]
  pest or weed control at 100 ppm: > 80%
[2]; [4]
  pest or weed control at 121.5 g/ha: > 80%
[2]; [9]
  pest or weed control at 100 ppm: > 80%
[2]; [5]
  pest or weed control at 121.5 g/ha: > 80%

## COc1cc[n+]([O-])c(C(=O)N[C@@H](C)C(=O)O[C@@H](C)C(c2ccc(F)c(F)c2OC)c2ccc(F)c(F)c2OC)c1O [Compound 12]
[1]; [6]
  pest or weed control at 100 ppm: > 80%
[1]; [7]
  pest or weed control at 121.5 g/ha: > 80%
[1]; [10]
  pest or weed control at 100 ppm: > 80%
[1]; [3]
  pest or weed control at 121.5 g/ha: > 80%
[2]; [8]
  pest or weed control at 100 ppm: > 80%
[2]; [4]
  pest or weed control at 121.5 g/ha: > 80%
[2]; [9]
  pest or weed control at 100 ppm: ≤ 80%
[2]; [5]
  pest or weed control at 121.5 g/ha: ≤ 80%

## COc1cc[n+]([O-])c(C(=O)N[C@@H](C)C(=O)O[C@@H](C)C(c2ccc(F)cc2)c2ccc(F)cc2)c1O [Compound 13]
[1]; [6]
  pest or weed control at 100 ppm: > 80%
[1]; [7]
  pest or weed control at 121.5 g/ha: > 80%
[1]; [10]
  pest or weed control at 100 ppm: > 80%
[1]; [3]
  pest or weed control at 121.5 g/ha: > 80%
[2]; [8]
  pest or weed control at 100 ppm: > 80%
[2]; [4]
  pest or weed control at 121.5 g/ha: > 80%
[2]; [9]
  pest or weed control at 100 ppm: > 80%
[2]; [5]
  pest or weed control at 121.5 g/ha: ≤ 80%

## COc1cc[n+]([O-])c(C(=O)N[C@@H](C)C(=O)O[C@@H](C)C(c2ccc(C)c(C)c2)c2ccc(C)c(C)c2)c1O [Compound 15]
[1]; [7]
  pest or weed control at 121.5 g/ha: > 80%
[1]; [3]
  pest or weed control at 121.5 g/ha: > 80%
[2]; [4]
  pest or weed control at 121.5 g/ha: ≤ 80%
[2]; [5]
  pest or weed control at 121.5 g/ha: ≤ 80%

## COc1cc[n+]([O-])c(C(=O)N[C@@H](C)C(=O)O[C@@H](C)C(c2ccc(F)c(C)c2)c2ccc(F)c(C)c2)c1O [Compound 17]
[1]; [7]
  pest or weed control at 121.5 g/ha: > 80%
[1]; [3]
  pest or weed control at 121.5 g/ha: > 80%
[2]; [4]
  pest or weed control at 121.5 g/ha: ≤ 80%
[2]; [5]
  pest or weed control at 121.5 g/ha: ≤ 80%

## COc1cc(C(c2ccc(C)c(OC)c2)[C@H](C)OC(=O)[C@H](C)NC(=O)c2c(O)c(OC)cc[n+]2[O-])ccc1C [Compound 18]
[1]; [7]
  pest or weed control at 121.5 g/ha: > 80%
[1]; [3]
  pest or weed control at 121.5 g/ha: > 80%
[2]; [4]
  pest or weed control at 121.5 g/ha: ≤ 80%
[2]; [5]
  pest or weed control at 121.5 g/ha: ≤ 80%

## COc1cc[n+]([O-])c(C(=O)N[C@@H](C)C(=O)O[C@@H](C)C(c2ccc(C)c(F)c2)c2ccc(C)c(F)c2)c1O [Compound 19]
[1]; [7]
  pest or weed control at 121.5 g/ha: > 80%
[1]; [3]
  pest or weed control at 121.5 g/ha: > 80%
[2]; [4]
  pest or weed control at 121.5 g/ha: ≤ 80%
[2]; [5]
  pest or weed control at 121.5 g/ha: ≤ 80%

## COc1cc[n+]([O-])c(C(=O)N[C@@H](C)C(=O)O[C@@H](C)C(c2ccc(F)c(F)c2)c2ccc(F)c(F)c2)c1O [Compound 21]
[1]; [7]
  pest or weed control at 121.5 g/ha: > 80%
[1]; [3]
  pest or weed control at 121.5 g/ha: > 80%
[2]; [5]
  pest or weed control at 121.5 g/ha: ≤ 80%

## COc1cc[n+]([O-])c(C(=O)N[C@@H](C)C(=O)O[C@@H](C)[C@@H](c2ccccc2)c2ccc(F)cc2C)c1O [Compound 22]
[1]; [6]
  pest or weed control at 100 ppm: > 80%
[1]; [7]
  pest or weed control at 121.5 g/ha: > 80%
[1]; [10]
  pest or weed control at 100 ppm: > 80%
[1]; [3]
  pest or weed control at 121.5 g/ha: > 80%
[2]; [8]
  pest or weed control at 100 ppm: > 80%
[2]; [4]
  pest or weed control at 121.5 g/ha: > 80%
[2]; [9]
  pest or weed control at 100 ppm: > 80%
[2]; [5]
  pest or weed control at 121.5 g/ha: > 80%

## COc1cc(F)ccc1[C@@H](c1ccc(F)c(C)c1)[C@H](C)OC(=O)[C@H](C)NC(=O)c1c(O)c(OC)cc[n+]1[O-] [Compound 23]
[1]; [6]
  pest or weed control at 100 ppm: > 80%
[1]; [10]
  pest or weed control at 100 ppm: > 80%
[2]; [8]
  pest or weed control at 100 ppm: > 80%
[2]; [9]
  pest or weed control at 100 ppm: > 80%

## COc1cc(F)ccc1[C@@H](c1ccc(F)cc1)[C@H](C)OC(=O)[C@H](C)NC(=O)c1c(O)c(OC)cc[n+]1[O-] [Compound 24]
[1]; [6]
  pest or weed control at 100 ppm: > 80%
[1]; [7]
  pest or weed control at 121.5 g/ha: > 80%
[1]; [10]
  pest or weed control at 100 ppm: > 80%
[1]; [3]
  pest or weed control at 121.5 g/ha: > 80%
[2]; [8]
  pest or weed control at 100 ppm: > 80%
[2]; [4]
  pest or weed control at 121.5 g/ha: > 80%
[2]; [9]
  pest or weed control at 100 ppm: > 80%
[2]; [5]
  pest or weed control at 121.5 g/ha: ≤ 80%
